Laboratory results published in US10314804B2, “Composition containing norbixin for protecting cells of the retinal pigment epithelium” (BIOPHYTIS, priority 2015, dated 2019).
Entries after “also recorded” stand apart in the source; their conditions may differ. Like-named read-outs stand apart in the source and are kept apart here.

Columns and labels:
[1] = tested on: primary cultures of adult pig RPE; conditions: cited from earlier work; for photoprotective activity on RPE cells in earlier tests (FR 11 54172): 0.1 μM, 1 μM and 10 μM
[2] = bioavailability of bixin and norbixin, plasma analysis; assay type: in vivo, C57Bl/6 mice; conditions: for Cmax: 50 mg/kg; for AUC(0-t): read-out: AUC 0-24 h; for detection in plasma over time: after bixin ingestion
Experimental: Studies of the bioavailability of bixin and of norbixin were carried out in C57Bl/6 mice. The compounds were administered orally (50 mg/kg). Blood samples were taken after 0.25, 0.5, 1, 3, 6, 8 and 24 h and analyzed by HPLC-DAD (UV 460 nm)-MS/MS.

[3] = tested on: primary cultures of adult pig RPE; test: in vitro photoprotection test: RPE cells with A2E, blue light illumination, cell survival; assay type: cell-based; conditions: 20 μM (extract diluted to provide 20 μM of bixin), FIG. 1
Experimental: The term “blue radiation” is intended to mean the radiation corresponding to the blue band of the visible light spectrum, that is to say having a wavelength of between 435 and 490 nm. This model uses primary cultures of adult pig RPE. The cell survival is quantified by means of a cell viability test. At −48 h, the compounds to be tested (in 5 mM solution in DMSO) are added so as to obtain final concentrations of 1 to 20 μM), then at −19 h, A2E is added (final concentration 30 μM) and the cells are irradiated (time 0 h). 24 h later, the cell survival is measured. The acquisition of the images and also the processing thereof are carried out by means of a fluorescence microscope controlled by the Metamorph software and of a dedicated quantification program. The experiments are carried out on 96-well microplates in quadruplicate and the experiment is reproduced a minimum of four times. The results are expressed in the form of a ratio representing the number of live cells in the wells treated with the molecules to be tested, divided by the number of live cells in the control wells (treated with the dilution medium without A2E).

neuroganglion cells = conditions: Yamauchi et al., 2011; cited from earlier work
rats [4] = conditions: cited from earlier work
[5] = tested on: double KO mice (ABCA4−/−, RDH8−/−); test: photoprotective activity by chronic oral administration (supplemented feed, 3 months); assay type: in vivo
Experimental: A feed containing 0.3 mg/g of pure norbixin was prepared and given to double KO mice (ABCA4^−/−, RDH8^−/−) for a period of 3 months.

rats [6] = test: rat blue light model, intraperitoneal injection; assay type: in vivo; conditions: 100 mg/kg i.p.
Experimental: The “rat blue light” model consists in subjecting the animals to a strong blue light for 6 hours in order to cause ocular damage that is assessed 7 days later by carrying out electroretinograms and then by histological analyses. An antioxidant compound, PBN (phenyl-N-tert-butylnitrone) is used as positive control (Ranchon et al., 2001; Tomita et al., 2005). The compounds of which it is sought to determine the photoprotective activity are injected (intraperitoneally) before and during the illumination phase. Said phase is carried out with Philips blue neon tubes (4.2 mW/cm^2) for 6 hours.
Three series of experiments were carried out with norbixin (100 mg/kg, four injections per rat of a solution at 50 mM in 9‰ NaCl, 4 rats/series) using PBN (phenyl-N-tert-butylnitrone, 50 mg/kg, solution at 20 mg/ml in 9‰ NaCl) as positive control.

[7] = cited from earlier work
[8] = presence of norbixin in the eyes after intraperitoneal injection; assay type: in vivo, double KO mice (ABCA4−/−, RDH8−/−)
Experimental: The presence of norbixin in the eyes was investigated in double KO mice (ABCA4^−/−, RDH8^−/−) 3 hours after intraperitoneal injection of norbixin (10 mg/kg). The eyes of 6 animals were dissected and the samples were extracted with acetonitrile, pooled and then analyzed by HPLC-MS/MS (FIG. 4), which made it possible to specifically detect the presence of norbixin in the RPE and the retina (table 2).
Glucuronidation had also been described in the case of crocetin (Asai et al., 2005).

[9] = tested on: double KO mice (ABCA4−/−, RDH8−/−); test: photoprotective activity by intravitreal injection, blue light exposure; assay type: in vivo
Excerpt: A genetically modified mouse model developed by Maeda et al. (2008) was used to test the photoprotective activity of norbixin. In this mouse model, two genes involved in the visual pigment cycle (ABCA4 and RDH8) are inactivated, which results in an early accumulation of A2E in the eyes (FIG. 5). This animal model is as a result similar to the human pathological condition, with of course its limits, associated with the differences in organization of the eyes between rodents and primates. 7-week-old mice were thus used to carry out unilateral intravitreal injections of norbixin (in order to obtain a final concentration in the vitreous body of 130 μM). After 24 h in the dark, the mice were subjected to an exposure to blue light (4000 lux, 1 h).

[10] = C57Bl/6, mouse, plasma, po, Bixin ingestion (50 mg/kg), analyte as labelled
[11] = C57Bl/6, mouse, po, Bixin ingestion (50 mg/kg), plasma, analyte as labelled

SMILES: COC(=O)/C=C/C(C)=C\C=C\C(C)=C\C=C\C=C(C)\C=C\C=C(C)\C=C\C(=O)O [bixin, methylhydrogen 6,6′-diapocarotene-6,6′-dioate]
- photoprotective activity on RPE cells in earlier tests (FR 11 54172) [1]: do not have any photoprotective activity; also recorded: ineffective
- Cmax [2, 10]: 833 ng/mL
- AUC(0-t) [2, 11]: 1670 ng·h/mL
- Tmax ([2]; C57Bl/6, mouse, po, Bixin ingestion (50 mg/kg), plasma, analyte as labelled, read-out: Tmax): 30 min
- detection in plasma over time ([2]; oral 50 mg/kg): no longer detected after 8 hours
- conversion of ingested compound ([2]; oral 50 mg/kg): rapidly converted into norbixin
- protection of RPE cells against phototoxicity induced in the presence of A2E (cell survival) [3]: effectively protect

SMILES: O=c1oc2c(O)c(O)cc3c(=O)oc4c(O)c(O)cc1c4c23 [ellagic acid]
- photoprotective effect on RPE cells in earlier tests (FR 11 54172) ([1]; 10 μM and 20 μM): advantageous photoprotective effect

SMILES: CC(/C=C/C=C(\C)C(=O)O)=C\C=C\C=C(C)\C=C\C=C(/C)C(=O)O [crocetin, 8,8′-diapocarotene-8,8′-dioate]
- protection against oxidative stress (neuroganglion cells): protects

SMILES: CC(=C/C=C/C(C)=C/C=C/C=C(C)/C=C/C=C(C)/C=C/C(=O)O)/C=C/C(=O)O [norbixin]
- intake up to which no toxicity was observed (rats [4]; rat, in vivo): 20 mg/kg/day
- no observable adverse effect level (NOAEL) (rats [4]; rats): 69 mg/kg/day of body weight
- accumulation of norbixin in the eyes ([5]; chronic treatment, feed, 3 months): no significant accumulation
- A2E accumulation in the eyes ([5]; feed 0.3 mg/g, 3 months, FIG. 10): reduction in A2E accumulation
- amplitude of the electroretinogram (ERG) ([5]; feed 0.3 mg/g, 3 months, FIG. 11): positive effect
- daily intake that significantly slows down the retinal degeneration ([5]; mice, oral administration): 48 mg/kg of body weight
- photoprotective activity on RPE cells in earlier tests (FR 11 54172) [1]: do not have any photoprotective activity
- electroretinograms (A-waves and B-waves) (rats [6]; four injections, blue light 6 hours, 7 days later, FIG. 8B): significant efficacity
- survival of the photoreceptors, histology (rats [6]; FIGS. 9A and 9B): confirm the photoprotective action
- acceptable daily intake (ADI) ([7]; JECFA/67/FC): at most 0.6 mg/kg/day of body weight
- daily intake with no observable adverse effect level in humans, equivalent ([7]; equivalent of rat NOAEL): 11 mg/kg
- Norbixin (ng/organ), Crystalline ([8]; 3 hours after i.p. 10 mg/kg, Crystalline): <LOQ
- Norbixin (ng/organ), RPE ([8]; 3 hours after i.p. 10 mg/kg, RPE): 5.15 ng/organ
- Norbixin (ng/organ), Retina ([8]; 3 hours after i.p. 10 mg/kg, Retina): 2.40 ng/organ
- Norbixin (ng/organ), Total ([8]; 3 hours after i.p. 10 mg/kg, Total): 7.55 ng/organ
- Norbixin (ng/organ), Vitreous humor ([8]; 3 hours after i.p. 10 mg/kg, Vitreous humor): <LOQ
- conjugated forms in plasma and eyes ([8]; HPLC-MS/MS, FIG. 4): gives two monoglucuronides
- Tmax ([2]; Bixin ingestion (50 mg/kg), plasma, analyte as labelled): Norbixin 0.5 h
- Cmax [2, 10]: 649 ng/mL
- Cmax ([2]; C57Bl/6, mouse, plasma, po, Norbixin ingestion (50 mg/kg)): 12400 ng/mL
- bioavailability ([2]; C57Bl/6, mouse, plasma, intraperitoneal injection (5 mg/kg) versus oral administration (50 mg/kg), FIG. 3b): 55%
- AUC(0-t) [2, 11]: 1340 ng·h/mL
- AUC ([2]; C57Bl/6, mouse, po, Norbixin ingestion (50 mg/kg), plasma): 41600 ng·h/mL
- Tmax ([2]; C57Bl/6, mouse, po, Norbixin ingestion (50 mg/kg), plasma, read-out: Tmax): 30 min
- detection in plasma over time ([2]; oral 50 mg/kg): no longer detected after 8 hours
- elimination from the eye after intravitreal injection ([9]; 24 h after the intravitreal injection): virtually eliminated
- electroretinogram (A- and B-waves) ([9]; intravitreal, 130 μM in vitreous body, blue light 4000 lux 1 h, 7 days later, FIG. 6): protective effect
- thickness of the layer of external nuclei (photoreceptors), histology ([9]; intravitreal, 130 μM, FIG. 7): protective effect
- protection of RPE cells against phototoxicity induced in the presence of A2E (cell survival) [3]: effectively protect
